Experimental data as given in ChEMBL document CHEMBL5331117, “X-Ray Conformation and Structure-Activity Relationships of MA026, a Reversible Tight Junction Opener” (J Med Chem, 2023).

System: MDCK-II
Assay: Induction of claudin-1 mediated tight junction opening in MDCK-II cells assessed as increase in FITC-conjugated dextran incubated for 5 hrs relative to control
Assay type: cell-based
Parameters: concentration or dose not given beside the values
Conditions: Canis lupus familiaris

SMILES	Activity [%]	Activity (filed as opener) [%]
CCCCCCCCCC(=O)N[C@@H](CC(C)C)C(=O)N[C@H](CCC(=O)O)C(=O)N[C@H](CCC(N)=O)C(=O)N[C@@H](C(=O)N[C@H](CC(C)C)C(=O)N[C@@H](CCC(N)=O)C(=O)N[C@@H]1COC(=O)[C@H]([C@@H](C)CC)NC(=O)[C@@H](CCC(N)=O)NC(=O)[C@H](CC(C)C)NC(=O)[C@@H](CC(C)C)NC(=O)[C@@H](CCC(N)=O)NC(=O)[C@@H](CC(C)C)NC(=O)[C@@H](C(C)C)NC1=O)C(C)C	-2	–
CCCCCCCCCCCCC(=O)N[C@@H](CC(C)C)C(=O)N[C@H](CCC(=O)O)C(=O)N[C@H](CCC(N)=O)C(=O)N[C@@H](C(=O)N[C@H](CC(C)C)C(=O)N[C@@H](CCC(N)=O)C(=O)N[C@@H]1COC(=O)[C@H]([C@@H](C)CC)NC(=O)[C@@H](CCC(N)=O)NC(=O)[C@H](CC(C)C)NC(=O)[C@H](CC(C)C)NC(=O)[C@@H](CCC(N)=O)NC(=O)[C@@H](CC(C)C)NC(=O)[C@@H](C(C)C)NC1=O)C(C)C	33.3	–
CCCCCCCCCC(=O)N[C@@H](CC(C)C)C(=O)N[C@H](CCC(=O)O)C(=O)N[C@H](CCC(N)=O)C(=O)N[C@@H](C(=O)N[C@@H](CC(C)C)C(=O)N[C@@H](CCC(N)=O)C(=O)N[C@@H]1COC(=O)[C@H]([C@@H](C)CC)NC(=O)[C@@H](CCC(N)=O)NC(=O)[C@H](CC(C)C)NC(=O)[C@H](CC(C)C)NC(=O)[C@@H](CCC(N)=O)NC(=O)[C@@H](CC(C)C)NC(=O)[C@@H](C(C)C)NC1=O)C(C)C	–	48.8
CCCCCCCCCC(=O)N[C@@H](CC(C)C)C(=O)N[C@H](CCC(=O)O)C(=O)N[C@H](CCC(N)=O)C(=O)N[C@@H](C(=O)N[C@H](CC(C)C)C(=O)N[C@@H](CCC(N)=O)C(=O)N[C@@H]1COC(=O)[C@H]([C@@H](C)CC)NC(=O)[C@@H](CCC(N)=O)NC(=O)[C@H](CC(C)C)NC(=O)[C@H](CC(C)C)NC(=O)[C@@H](CCC(N)=O)NC(=O)[C@H](CC(C)C)NC(=O)[C@@H](C(C)C)NC1=O)C(C)C	3.8	–
CC[C@H](C)[C@@H]1NC(=O)[C@@H](CCC(N)=O)NC(=O)[C@H](CC(C)C)NC(=O)[C@H](CC(C)C)NC(=O)[C@@H](CCC(N)=O)NC(=O)[C@@H](CC(C)C)NC(=O)[C@@H](C(C)C)NC(=O)[C@H](NC(=O)[C@H](CCC(N)=O)NC(=O)[C@@H](CC(C)C)NC(=O)[C@H](NC(=O)[C@@H](CCC(N)=O)NC(=O)[C@@H](CCC(=O)O)NC(=O)[C@H](CC(C)C)NC(=O)CCCC(C)C)C(C)C)COC1=O	2.6	–
CC[C@H](C)[C@@H]1NC(=O)[C@@H](CCC(N)=O)NC(=O)[C@H](CC(C)C)NC(=O)[C@H](CC(C)C)NC(=O)[C@@H](CCC(N)=O)NC(=O)[C@@H](CC(C)C)NC(=O)[C@@H](C(C)C)NC(=O)[C@H](NC(=O)[C@H](CCC(N)=O)NC(=O)[C@@H](CC(C)C)NC(=O)[C@H](NC(=O)[C@@H](CCC(N)=O)NC(=O)[C@@H](CCC(=O)O)NC(=O)[C@H](CC(C)C)NC(C)=O)C(C)C)COC1=O	-2.8	–
CCCCCCCCCC(=O)N[C@@H](CC(C)C)C(=O)N[C@H](CCC(=O)O)C(=O)N[C@H](CCC(N)=O)C(=O)N[C@@H](C(=O)N[C@H](CC(C)C)C(=O)N[C@@H](CCC(N)=O)C(=O)N[C@@H]1COC(=O)[C@H]([C@@H](C)CC)NC(=O)[C@@H](CCC(N)=O)NC(=O)[C@H](CC(C)C)NC(=O)[C@H](CC(C)C)NC(=O)[C@H](CCC(N)=O)NC(=O)[C@@H](CC(C)C)NC(=O)[C@@H](C(C)C)NC1=O)C(C)C	–	47.6
CCCCCCC(=O)N[C@@H](CC(C)C)C(=O)N[C@H](CCC(=O)O)C(=O)N[C@H](CCC(N)=O)C(=O)N[C@@H](C(=O)N[C@H](CC(C)C)C(=O)N[C@@H](CCC(N)=O)C(=O)N[C@@H]1COC(=O)[C@H]([C@@H](C)CC)NC(=O)[C@@H](CCC(N)=O)NC(=O)[C@H](CC(C)C)NC(=O)[C@H](CC(C)C)NC(=O)[C@@H](CCC(N)=O)NC(=O)[C@@H](CC(C)C)NC(=O)[C@@H](C(C)C)NC1=O)C(C)C	-2.8	–
CCCCCCC[C@@H](O)CC(=O)N[C@@H](CC(C)C)C(=O)N[C@H](CCC(=O)O)C(=O)N[C@H](C)C(=O)N[C@@H](C(=O)N[C@H](CC(C)C)C(=O)N[C@@H](CCC(N)=O)C(=O)N[C@@H]1COC(=O)[C@H]([C@@H](C)CC)NC(=O)[C@@H](CCC(N)=O)NC(=O)[C@H](CC(C)C)NC(=O)[C@H](CC(C)C)NC(=O)[C@@H](CCC(N)=O)NC(=O)[C@@H](CC(C)C)NC(=O)[C@@H](C(C)C)NC1=O)C(C)C	32	–
CCCCCCCCCC(=O)N[C@@H](CC(C)C)C(=O)N[C@H](CCC(=O)O)C(=O)N[C@@H](CCC(N)=O)C(=O)N[C@@H](C(=O)N[C@H](CC(C)C)C(=O)N[C@@H](CCC(N)=O)C(=O)N[C@@H]1COC(=O)[C@H]([C@@H](C)CC)NC(=O)[C@@H](CCC(N)=O)NC(=O)[C@H](CC(C)C)NC(=O)[C@H](CC(C)C)NC(=O)[C@@H](CCC(N)=O)NC(=O)[C@@H](CC(C)C)NC(=O)[C@@H](C(C)C)NC1=O)C(C)C	17.6	–
CCCCCCCCCC(=O)N[C@@H](CC(C)C)C(=O)N[C@H](CCC(=O)O)C(=O)N[C@H](CCC(N)=O)C(=O)N[C@@H](C(=O)N[C@H](CC(C)C)C(=O)N[C@H](CCC(N)=O)C(=O)N[C@@H]1COC(=O)[C@H]([C@@H](C)CC)NC(=O)[C@@H](CCC(N)=O)NC(=O)[C@H](CC(C)C)NC(=O)[C@H](CC(C)C)NC(=O)[C@@H](CCC(N)=O)NC(=O)[C@@H](CC(C)C)NC(=O)[C@@H](C(C)C)NC1=O)C(C)C	0.8	–
CCCCCCC[C@@H](O)CC(=O)N[C@@H](CC(C)C)C(=O)N[C@H](CCC(=O)O)C(=O)N[C@H](CCC(N)=O)C(=O)N[C@@H](C(=O)N[C@H](CC(C)C)C(=O)N[C@@H](CCC(N)=O)C(=O)N[C@@H]1COC(=O)[C@H](C)NC(=O)[C@@H](CCC(N)=O)NC(=O)[C@H](CC(C)C)NC(=O)[C@H](CC(C)C)NC(=O)[C@@H](CCC(N)=O)NC(=O)[C@@H](CC(C)C)NC(=O)[C@@H](C(C)C)NC1=O)C(C)C	0.2	–
CCCCCCCCCC(=O)N[C@@H](CC(C)C)C(=O)N[C@H](CCC(=O)O)C(=O)N[C@H](CCC(N)=O)C(=O)N[C@@H](C(=O)N[C@H](CC(C)C)C(=O)N[C@@H](CCC(N)=O)C(=O)N[C@@H]1COC(=O)[C@@H]([C@@H](C)CC)NC(=O)[C@@H](CCC(N)=O)NC(=O)[C@H](CC(C)C)NC(=O)[C@H](CC(C)C)NC(=O)[C@@H](CCC(N)=O)NC(=O)[C@@H](CC(C)C)NC(=O)[C@@H](C(C)C)NC1=O)C(C)C	18.3	–
CCCCCCCCCC(=O)N[C@@H](CC(C)C)C(=O)N[C@H](CCC(=O)O)C(=O)N[C@H](CCC(N)=O)C(=O)N[C@@H](C(=O)N[C@H](CC(C)C)C(=O)N[C@@H](CCC(N)=O)C(=O)N[C@@H]1COC(=O)[C@H]([C@@H](C)CC)NC(=O)[C@H](CCC(N)=O)NC(=O)[C@H](CC(C)C)NC(=O)[C@H](CC(C)C)NC(=O)[C@@H](CCC(N)=O)NC(=O)[C@@H](CC(C)C)NC(=O)[C@@H](C(C)C)NC1=O)C(C)C	–	63.3
CCCCCCCCCC(=O)N[C@@H](CC(C)C)C(=O)N[C@H](CCC(=O)O)C(=O)N[C@H](CCC(N)=O)C(=O)N[C@@H](C(=O)N[C@H](CC(C)C)C(=O)N[C@@H](CCC(N)=O)C(=O)N[C@@H]1COC(=O)[C@H]([C@@H](C)CC)NC(=O)[C@@H](CCC(N)=O)NC(=O)[C@H](CC(C)C)NC(=O)[C@H](CC(C)C)NC(=O)[C@@H](CCC(N)=O)NC(=O)[C@@H](CC(C)C)NC(=O)[C@H](C(C)C)NC1=O)C(C)C	0.4	–
CCCCCCCCCC(=O)N[C@H](CC(C)C)C(=O)N[C@H](CCC(=O)O)C(=O)N[C@H](CCC(N)=O)C(=O)N[C@@H](C(=O)N[C@H](CC(C)C)C(=O)N[C@@H](CCC(N)=O)C(=O)N[C@@H]1COC(=O)[C@H]([C@@H](C)CC)NC(=O)[C@@H](CCC(N)=O)NC(=O)[C@H](CC(C)C)NC(=O)[C@H](CC(C)C)NC(=O)[C@@H](CCC(N)=O)NC(=O)[C@@H](CC(C)C)NC(=O)[C@@H](C(C)C)NC1=O)C(C)C	–	56.8
CCCCCCCCCC(=O)N[C@@H](CC(C)C)C(=O)N[C@H](CCC(=O)O)C(=O)N[C@H](CCC(N)=O)C(=O)N[C@@H](C(=O)N[C@H](CC(C)C)C(=O)N[C@@H](CCC(N)=O)C(=O)N[C@@H]1COC(=O)[C@H]([C@@H](C)CC)NC(=O)[C@@H](CCC(N)=O)NC(=O)[C@H](CC(C)C)NC(=O)[C@H](CC(C)C)NC(=O)[C@@H](CCC(N)=O)NC(=O)[C@@H](CC(C)C)NC(=O)[C@@H](C(C)C)NC1=O)C(C)C	–	174
CCCCCCCCCC(=O)N[C@@H](CC(C)C)C(=O)N[C@H](CCC(=O)O)C(=O)N[C@H](CCC(N)=O)C(=O)N[C@H](C(=O)N[C@H](CC(C)C)C(=O)N[C@@H](CCC(N)=O)C(=O)N[C@@H]1COC(=O)[C@H]([C@@H](C)CC)NC(=O)[C@@H](CCC(N)=O)NC(=O)[C@H](CC(C)C)NC(=O)[C@H](CC(C)C)NC(=O)[C@@H](CCC(N)=O)NC(=O)[C@@H](CC(C)C)NC(=O)[C@@H](C(C)C)NC1=O)C(C)C	8.6	–
CCCCCCC[C@@H](O)CC(=O)N[C@@H](CC(C)C)C(=O)N[C@H](CCC(=O)O)C(=O)N[C@H](CCC(N)=O)C(=O)N[C@@H](C(=O)N[C@H](CC(C)C)C(=O)N[C@@H](C)C(=O)N[C@@H]1COC(=O)[C@H]([C@@H](C)CC)NC(=O)[C@@H](CCC(N)=O)NC(=O)[C@H](CC(C)C)NC(=O)[C@H](CC(C)C)NC(=O)[C@@H](CCC(N)=O)NC(=O)[C@@H](CC(C)C)NC(=O)[C@@H](C(C)C)NC1=O)C(C)C	–	94.8
CCCCCCCCCC(=O)N[C@@H](CC(C)C)C(=O)N[C@H](CCC(=O)O)C(=O)N[C@H](CCC(N)=O)C(=O)N[C@@H](C(=O)N[C@H](CC(C)C)C(=O)N[C@@H](CCC(N)=O)C(=O)N[C@H]1COC(=O)[C@H]([C@@H](C)CC)NC(=O)[C@@H](CCC(N)=O)NC(=O)[C@H](CC(C)C)NC(=O)[C@H](CC(C)C)NC(=O)[C@@H](CCC(N)=O)NC(=O)[C@@H](CC(C)C)NC(=O)[C@@H](C(C)C)NC1=O)C(C)C	2.3	–
CCCCCCC[C@@H](O)CC(=O)N[C@@H](CC(C)C)C(=O)N[C@H](CCC(=O)O)C(=O)N[C@H](CCC(N)=O)C(=O)N[C@@H](C(=O)N[C@H](CC(C)C)C(=O)N[C@@H](CCC(N)=O)C(=O)N[C@@H]1COC(=O)[C@H]([C@@H](C)CC)NC(=O)[C@@H](C)NC(=O)[C@H](CC(C)C)NC(=O)[C@H](CC(C)C)NC(=O)[C@@H](CCC(N)=O)NC(=O)[C@@H](CC(C)C)NC(=O)[C@@H](C(C)C)NC1=O)C(C)C	–	122
